We go through one compound from US9616081B2, “Antitumor agent including low-dose irinotecan hydrochloride hydrate” (TAIHO PHARMACEUTICAL CO., LTD., priority 2013, dated 2017).

Each structure is given as a SMILES string. Structures can show the parent of a compound that is named as a salt.

The conditions of series [1]: dose of 111 mg/kg/day; cited from earlier work.
Series [2] has as its system human colon cancer cell line (KM20C). As to the kind of experiment: Reference Example: survival of mice intraperitoneally transplanted with KM20C, monotherapy. The class given is in vivo. Conditions: i.v., weekly; for ILS (increase in life span): 6 weeks from Day 3; for Survival time (day) Mean ± SD: 6 weeks from Day 3, BALB/cA Jcl-nu mice. The procedure:
Cultured cells (1×10^7 cells/mouse) of human colon cancer cell line (KM20C) were intraperitoneally transplanted into 5-6 weeks old BALB/cA Jcl-nu mice after birth, and the mice were assigned to each group so that the mean body weight of each group became equal. The date on which such grouping (n=10) was performed was taken as Day 0.
[…]. Starting the dug administration from Day 3, a 5-days' daily oral administration of the FTD/TPI combination drug with 2-days' rest was performed for 6 weeks, and CPT-11 was administered once in a week from the tail vein for 6 weeks.
As an index of the antitumor effect, the number of survivors of each group of mice and the survival time of each group was compared.

The test system of series [3] is human gastric cancer cell line (SC-2). As to the kind of experiment: Example 3: combined administration test, SC-2 tumor in mice (RTV, TGI). Particulars: Day 1, 8, i.v., q.d.

For `CCc1c2c(nc3ccc(OC(=O)N4CCC(N5CCCCC5)CC4)cc13)-c1cc3c(c(=O)n1C2)COC(=O)[C@]3(O)CC` [CPT-11, irinotecan hydrochloride hydrate], the death case reported entry in series [1] was “death case”. Further, the “ILS (increase in life span)” value in series [2] (80 mg/kg/day) amounted to 54.0%; in series [2] (100 mg/kg/day), 81.3%. The results for the “Survival time (day) Mean ± SD” value in series [2] (80 mg/kg/day) and in series [2] (100 mg/kg/day) were 61.6 ± 12.6 days and 72.5 ± 12.3 days, respectively. Moreover, the results for the “TGI, tumor growth inhibition rate on Day 15” value in series [3] (40 mg/kg/day) and in series [3] (80 mg/kg/day) were 64.6% and 79.4%, respectively.
